The source of these data is ChEMBL document CHEMBL4513161, “CO-ADD screening of MMV (CH) - Pandemic Response Box” (2021).

In one assay the test system is HEK293. In words: cells. The class given is functional, Homo sapiens, ATCC CRL1573. To be noted: Homo sapiens, ATCC CRL1573, HEK293; ASSAY_TEST Inhibition of Cell Viability; detection method Resazurin; Fluorescence (ex560/em590); MEDIA DMEM with 10% FBS; plate type 384well; TC; CORNING #3712; time 18 hr; read-out: CC50.
The subject of assay [1] is Pseudomonas aeruginosa. The experiment in a line: Antibacterial activity against Pseudomonas aeruginosa PAO397 [PAO1 d(mexAB-oprM) d(mexCD-oprJ) d(mexEF-oprN) d(mexJKL) d(mexXY) d(opmH)] (CO-ADD:GN_211); MIC in CAMBH media using NBS plates, by OD(600). It is filed as functional. To be noted: ASSAY_TEST Inhibition of Bacterial Growth, detection method Absorption (OD600), MEDIA CAMHB, plate type 384well, CORNING #3640, time 18 hr.

For a further assay, the system named is Staphylococcus aureus. The experiment in a line: microbe, parasite or virus in culture. Conditions: ATCC 43300, 18 h, ASSAY_TEST Inhibition of Bacterial Growth, detection method Absorption (OD600), MEDIA CAMHB, plate type 384well, NBS, CORNING #3640.
For another assay, the system named is Escherichia coli. The experiment in a line: microbe, parasite or virus in culture. To be noted: ATCC 25922, 18 h, ASSAY_TEST Inhibition of Bacterial Growth, detection method Absorption (OD600), MEDIA CAMHB, plate type 384well, NBS, CORNING #3640.
A further assay relates to Klebsiella pneumoniae. The experiment in a line: microbe, parasite or virus in culture. To be noted: ATCC 700603, 18 h, ASSAY_TEST Inhibition of Bacterial Growth, detection method Absorption (OD600), MEDIA CAMHB, plate type 384well, NBS, CORNING #3640.
Assay [2] relates to Pseudomonas aeruginosa. The experiment in a line: microbe, parasite or virus in culture. Conditions: ATCC 27853, 18 h, ASSAY_TEST Inhibition of Bacterial Growth, detection method Absorption (OD600), MEDIA CAMHB, plate type 384well, NBS, CORNING #3640.
Description: Antibacterial activity against Pseudomonas aeruginosa ATCC 27853 (CO-ADD:GN_042); MIC in CAMBH media using NBS plates, by OD(600)
For the next assay, the system named is Acinetobacter baumannii. The experiment in a line: microbe, parasite or virus in culture. Conditions: ATCC 19606, 18 h, ASSAY_TEST Inhibition of Bacterial Growth, detection method Absorption (OD600), MEDIA CAMHB, plate type 384well, NBS, CORNING #3640.
Another assay deals with Candida albicans. The experiment in a line: microbe, parasite or virus in culture. To be noted: ATCC 90028, ASSAY_TEST Inhibition of Fungal Growth, detection method Absorption (OD530), plate type 384well, NBS, CORNING #3640.

Converted amounts (≈) assume the structure as drawn.

Description for Acinetobacter baumannii: Antibacterial activity against Acinetobacter baumannii ATCC 19606 (CO-ADD:GN_034); MIC in CAMBH media using NBS plates, by OD600
Description for Candida albicans: Antifungal activity against Candida albicans ATCC 90028 (CO-ADD:FG_001); MIC in YNB media using NBS plates, by OD630
Description for Cryptococcus neoformans: Antifungal activity against Cryptococcus neoformans H99 ATCC 208821 (CO-ADD:FG_002); MIC in YNB media using NBS plates, by Resazurin OD(600-570)
Description for Escherichia coli: Antibacterial activity against Escherichia coli ATCC 25922 (CO-ADD:GN_001); MIC in CAMBH media using NBS plates, by OD(600)
Description for Klebsiella pneumoniae: Antibacterial activity against Klebsiella pneumoniae MDR ATCC 70063 (CO-ADD:GN_003); MIC in CAMBH media using NBS plates, by OD(600)
Description for Staphylococcus aureus: Antibacterial activity against Staphylococcus aureus MRSA ATCC 43300 (CO-ADD:GP_020); MIC in CAMBH media, using NBS plates, by OD(600)

As for `CC(C)(C)c1ccc(OCCn2nc(C(=O)O)c3ccccc3c2=O)cc1`, in the assay on HEK293, the CC50 is over 20 µM. Further, the MIC in the assay with Pseudomonas aeruginosa [1], against Cryptococcus neoformans, in the assay with Staphylococcus aureus, in the assay on Escherichia coli, in the assay with Klebsiella pneumoniae and in the assay on Pseudomonas aeruginosa [2] was over 20 µM each time. For the same compound, the MIC in the assay on Acinetobacter baumannii and against Candida albicans was over 20 µM each time.

Turning to `O=C(NCc1ccc2c3c(cccc13)C(=O)N2)c1cccs1`, the CC50 with HEK293 is over 20 µM. Moreover, the MIC against Pseudomonas aeruginosa [1], in the assay with Cryptococcus neoformans, against Staphylococcus aureus, against Escherichia coli, against Klebsiella pneumoniae and against Pseudomonas aeruginosa [2] was over 20 µM each time. In addition, the MIC with Acinetobacter baumannii and in the assay with Candida albicans was over 20 µM throughout.

Consider `CC1CN(c2ncnc3c2c(-c2ccccc2)cn3-c2ccc(F)cc2)CC(C)O1` (centres undefined), for which the CC50 in the assay on HEK293 was over 20 µM. Besides, the MIC in the assay with Pseudomonas aeruginosa [1], in the assay on Cryptococcus neoformans, with Staphylococcus aureus, against Escherichia coli, against Klebsiella pneumoniae and in the assay on Pseudomonas aeruginosa [2] was over 20 µM each time. The MIC against Acinetobacter baumannii and in the assay with Candida albicans was over 20 µM each time.

`COc1ccc(SCC(=O)N2c3ccccc3Sc3ccccc32)cc1`: in the assay with HEK293, the CC50 is over 20 µM. In addition, the MIC with Pseudomonas aeruginosa [1], in the assay on Cryptococcus neoformans, with Staphylococcus aureus, against Escherichia coli, with Klebsiella pneumoniae and in the assay on Pseudomonas aeruginosa [2] was over 20 µM each time. In addition, the MIC against Acinetobacter baumannii and against Candida albicans was over 20 µM each time.

Consider `O=S(=O)(Nc1ccc(-n2cccc2)cc1)c1ccc(Cl)c(Cl)c1`, for which the CC50 in the assay with HEK293 is over 20 µM. For the same compound, the MIC in the assay on Pseudomonas aeruginosa [1], in the assay on Cryptococcus neoformans, against Staphylococcus aureus, in the assay with Escherichia coli, in the assay with Klebsiella pneumoniae and against Pseudomonas aeruginosa [2] was over 20 µM in each case. For the same compound, the MIC in the assay with Acinetobacter baumannii and with Candida albicans was over 20 µM each time.

Regarding `CC(C)(C)c1cc(CCC(=O)N2CCC2)cc(C(C)(C)C)c1O`, the CC50 in the assay on HEK293 was over 20 µM. For the same compound, the MIC with Pseudomonas aeruginosa [1], against Cryptococcus neoformans, in the assay on Staphylococcus aureus, with Escherichia coli, in the assay with Klebsiella pneumoniae and with Pseudomonas aeruginosa [2] was over 20 µM each time. Moreover, the MIC against Acinetobacter baumannii and in the assay on Candida albicans was over 20 µM throughout.

Regarding `Clc1cccc(-c2nnc(-c3ccccc3)o2)c1`, in the assay on HEK293, the CC50 was over 20 µM. Further, the MIC against Pseudomonas aeruginosa [1], in the assay on Cryptococcus neoformans, against Staphylococcus aureus, in the assay on Escherichia coli, in the assay on Klebsiella pneumoniae and against Pseudomonas aeruginosa [2] was over 20 µM in each case. Further, the MIC with Acinetobacter baumannii and with Candida albicans was over 20 µM each time.

For the compound `OCCCCn1cnc2c(O)nc(NCc3ccc(Cl)c(Cl)c3)nc21`, in the assay on HEK293, the CC50 was over 20 µM. In addition, the MIC against Pseudomonas aeruginosa [1], in the assay on Cryptococcus neoformans, against Staphylococcus aureus, in the assay on Escherichia coli, with Klebsiella pneumoniae and against Pseudomonas aeruginosa [2] was over 20 µM in each case. Besides, the MIC against Acinetobacter baumannii and with Candida albicans was over 20 µM each time.

As to `O=C(O)c1ccc(-c2ccc(O[C@H]3O[C@H](CO)[C@@H](O)[C@H](O)[C@@H]3O)cc2)cc1`, the CC50 with HEK293 was over 20 µM. Moreover, the MIC against Pseudomonas aeruginosa [1], against Cryptococcus neoformans, with Staphylococcus aureus, in the assay with Escherichia coli, against Klebsiella pneumoniae and with Pseudomonas aeruginosa [2] was over 20 µM in each case. The MIC in the assay on Acinetobacter baumannii and with Candida albicans was over 20 µM each time.

Consider `Nc1nc(Nc2ccc3nc(-c4ccc(F)cc4)cc(N)c3c2)cc(-c2ccccc2)n1`, for which, in the assay on HEK293, the CC50 is 0.751 µM. Besides, the MIC was over 20 µM against Pseudomonas aeruginosa [1]; at most 0.156 µM in the assay on Cryptococcus neoformans; 10 µM (≈ 4.22 µg/mL) against Staphylococcus aureus; over 20 µM against Escherichia coli; over 20 µM against Klebsiella pneumoniae; over 20 µM in the assay with Pseudomonas aeruginosa [2]. Also, the MIC in the assay with Acinetobacter baumannii is over 20 µM; against Candida albicans it was 0.625 µM (≈ 0.264 µg/mL).

Regarding `CCc1cc(O)c(Oc2cccnc2N)cc1F`, the CC50 in the assay with HEK293 was over 20 µM. In addition, the MIC against Pseudomonas aeruginosa [1] is over 20 µM; against Cryptococcus neoformans, over 20 µM; against Staphylococcus aureus it was 1.25 µM (≈ 0.31 µg/mL); against Escherichia coli, 1.25 µM (≈ 0.31 µg/mL); in the assay on Klebsiella pneumoniae, 20 µM (≈ 4.97 µg/mL); in the assay on Pseudomonas aeruginosa [2], 2.5 µM (≈ 0.621 µg/mL). For the same compound, the MIC in the assay on Acinetobacter baumannii and with Candida albicans was over 20 µM throughout.

On to `COc1c(NC(=O)[C@H]2CC[C@@H](COc3ccc([N+](=O)[O-])cc3)CC2)c(F)cc2c(=O)c(C(=O)O)cn(C3CC3)c12`, for which the CC50 with HEK293 is over 20 µM. For the same compound, the MIC against Pseudomonas aeruginosa [1] is over 20 µM; in the assay on Cryptococcus neoformans it was over 20 µM; against Staphylococcus aureus it was 20 µM (≈ 11.1 µg/mL); in the assay on Escherichia coli, over 20 µM; in the assay with Klebsiella pneumoniae, over 20 µM; in the assay with Pseudomonas aeruginosa [2], over 20 µM. The MIC with Acinetobacter baumannii and in the assay with Candida albicans was over 20 µM each time.

Take `O=S(=O)(Nc1cccc2cccnc12)c1ccccc1`: the 50% cytotoxic concentration (CC50) in the assay on HEK293 turned out to be 2.25 µM. Further, the MIC against Pseudomonas aeruginosa [1], in the assay with Cryptococcus neoformans, in the assay with Staphylococcus aureus, with Escherichia coli, against Klebsiella pneumoniae and against Pseudomonas aeruginosa [2] was over 20 µM in each case. The MIC against Acinetobacter baumannii and in the assay with Candida albicans was over 20 µM throughout.

As to `CC(C)(C)c1cc(C(=O)/C(C#N)=N/Nc2cccc(Cl)c2)no1`, the CC50 in the assay on HEK293 was over 20 µM. For the same compound, the MIC in the assay with Pseudomonas aeruginosa [1], against Cryptococcus neoformans, against Staphylococcus aureus, against Escherichia coli, in the assay with Klebsiella pneumoniae and against Pseudomonas aeruginosa [2] was over 20 µM each time. Moreover, the MIC in the assay with Acinetobacter baumannii and in the assay on Candida albicans was over 20 µM each time.

For `c1ccc(Cn2c(-c3ccccn3)nc3ccccc32)cc1`, the CC50 in the assay on HEK293 is over 20 µM. For the same compound, the MIC with Pseudomonas aeruginosa [1], against Cryptococcus neoformans, against Staphylococcus aureus, in the assay with Escherichia coli, against Klebsiella pneumoniae and in the assay with Pseudomonas aeruginosa [2] was over 20 µM each time. In addition, the MIC against Acinetobacter baumannii and in the assay on Candida albicans was over 20 µM in each case.

For `CCCCCOc1ccc(/C=C2\Oc3c(ccc(O)c3O)C2=O)c(O)c1`, the CC50 in the assay with HEK293 is over 20 µM. In addition, the MIC in the assay on Pseudomonas aeruginosa [1], against Cryptococcus neoformans, against Staphylococcus aureus, against Escherichia coli, against Klebsiella pneumoniae and in the assay on Pseudomonas aeruginosa [2] was over 20 µM throughout. Besides, the MIC against Acinetobacter baumannii and in the assay on Candida albicans was over 20 µM throughout.

With `N=C(N)c1ccc(COc2ccc(Cl)cc2)cc1`, the CC50 in the assay on HEK293 was over 20 µM. Besides, the MIC with Pseudomonas aeruginosa [1], in the assay with Cryptococcus neoformans, with Staphylococcus aureus, against Escherichia coli, with Klebsiella pneumoniae and in the assay on Pseudomonas aeruginosa [2] was over 20 µM each time. For the same compound, the MIC in the assay on Acinetobacter baumannii and against Candida albicans was over 20 µM in each case.

On to `Nc1nnnn1CCOc1c2[nH]c3ccc(Cl)cc3c2cc2c1[nH]c1ccc(Cl)cc12`, for which the CC50 with HEK293 worked out at 19.9 µM. For the same compound, the MIC in the assay on Pseudomonas aeruginosa [1], against Cryptococcus neoformans, with Staphylococcus aureus, in the assay with Escherichia coli, in the assay with Klebsiella pneumoniae and against Pseudomonas aeruginosa [2] was over 20 µM in each case. Further, the MIC in the assay on Acinetobacter baumannii and in the assay on Candida albicans was over 20 µM throughout.

Consider `NC1(C(=O)O)CCP(=O)(O)CC1` (centres undefined), for which the CC50 in the assay with HEK293 is over 20 µM. For the same compound, the MIC against Pseudomonas aeruginosa [1], with Cryptococcus neoformans, against Staphylococcus aureus, against Escherichia coli, against Klebsiella pneumoniae and in the assay on Pseudomonas aeruginosa [2] was over 20 µM each time. Moreover, the MIC against Acinetobacter baumannii and in the assay on Candida albicans was over 20 µM throughout.

Take `CCc1nc2ccccn2c1C(=O)NCc1ccccc1`: the CC50 with HEK293 is over 20 µM. Further, the MIC in the assay with Pseudomonas aeruginosa [1], in the assay on Cryptococcus neoformans, in the assay on Staphylococcus aureus, against Escherichia coli, against Klebsiella pneumoniae and against Pseudomonas aeruginosa [2] was over 20 µM throughout. The MIC in the assay with Acinetobacter baumannii and in the assay on Candida albicans was over 20 µM in each case.

As for `C[C@H]1CC[C@@]2(O)C(C)(C)[C@@H]3CC[C@@]2(C)[C@H]1C3`, the CC50 with HEK293 is over 20 µM. Further, the MIC against Pseudomonas aeruginosa [1], against Cryptococcus neoformans, in the assay with Staphylococcus aureus, against Escherichia coli, in the assay with Klebsiella pneumoniae and with Pseudomonas aeruginosa [2] was over 20 µM throughout. Besides, the MIC with Acinetobacter baumannii and against Candida albicans was over 20 µM each time.
